A value given as a limit tells only on which side of the number the result lay.

19 molecules from patent US20120165319A1, “INHIBITORS OF INTERLEUKIN-1 BETA CONVERTING ENZYME” (VERTEX PHARMACEUTICALS INCORPORATED, priority 1995, published 2012) can be followed below.

One data set in a line: Pharmacokinetic studies in the mouse (i.v. clearance, plasma levels). The class given is in vivo. The settings on record: CD-1, plasma, iv; mouse, 25 mg/kg. Here is the method: Pharmacokinetic Studies in the Mouse
Sample Preparation and Dosing
Compounds were dissolved in sterile TRIS solution (0.02M or 0.05M) at a concentration of 2.5 mg/ml. Where necessary to ensure a complete solution, the sample was first dissolved in a minimum of dimethylacetamide (maximum of 5% of total solution volume) then diluted with the TRIS solution.
The drug solution was administered to CD-1 mice (Charles River Laboratories—26-31 g) via the tail vein at a dose volume of 10 ml/kg giving a drug dose of 25 mg/kg.
Mice were dosed in groups of 5 for each timepoint (generally from 2 minutes to 2 hours) then at the appropriate time the animals were anaesthetised with halothane and the blood collected into individual heparinized tubes by jugular severance. The blood samples were cooled to 0° C. then the plasma separated and stored at −20° C. until assayed.
Drug concentration in the plasma samples were determined by HPLC analysis with UV or MS (ESP) detection. Reverse phase chromatography was employed using a variety of bonded phases from C1 to C18 with eluents composed of aqueous buffer/acetonitrile mixtures run under isocratic conditions.
Quantitation was by external standard methods with calibration curves constructed by spiking plasma with drug solutions to give concentrations in the range of 0.5 to 50 μg/ml.
Prior to analysis the plasma samples were deproteinated by the addition of acetonitrile, methanol, trichloroacetic acid or perchloric acid followed by centrifugation at 10,000 g for 10 minutes. Sample volumes of 20 μl to 50 μl were injected for analysis.
The drug was dissolved in sterile 0.02M Tris to give a 2.5 mg/ml solution which was administered to […] of 5 male CD-1 mice via the tail vein at a dose of 25 mg/kg. At each of the following timepoints: 2, 5, 10, 15, 20, 30, 45, 60, 90 and 120 minutes a group of animals was anaesthetised and the blood collected into heparinized tubes. After separation the plasma was stored at −20° C. until assayed.
Aliquots of plasma (150 μl) were treated with 5% perchloric acid (5 μl) then mixed by vortexing and allowed to stand for 90 minutes prior to centrifugation. The resulting supernatant was separated and 20 μl was injected for HPLC analysis.
Aliquots of plasma (100 μl) were diluted with acetonitrile (100 μl) then mixed by vortexing for 20 seconds before centrifugation for 10 minutes. The resulting supernatant was separated and 20 μl was injected for HPLC analysis.
With `CC(=O)Nc1cccc(C(=O)N[C@H]2CCC(=O)N3CCC[C@@H](C(=O)N[C@H](C=O)CC(=O)O)N3C2=O)c1` [Compound 450, [3S(1S,9S)]3-{9-[(3-Acetamido)benzamido]-6,10-dioxo-1,2,3,4,7,8,9,10-octahydro-6H-pyridazino[1,2-a][1,2]diazepine-1-carboxamido}-4-oxobutanoic acid], the clearance (in general, the rate of elimination divided by the concentration) stood at 18 mL/min/kg.

As for `CC(=O)N[C@H]1CCC(=O)N2CCC[C@@H](C(=O)N[C@@H](CC(=O)O)C(=O)COC(=O)c3c(Cl)cccc3Cl)N2C1=O` [Compound 217c, [3S(1S,9S)]3-(9-Acetylamino-6,10-dioxo-1,2,3,4,7,8,9,10-octahydro-6H-pyridazino-[1,2-a][1,2]diazepine-1-carboxamido)-5-(2,6-dichlorobenzoyloxy)-4-oxopentanoic acid], the clearance was 70 mL/min/kg.

In turn, `O=C[C@H](CC(=O)O)NC(=O)[C@@H]1CCCN2C(=O)CC[C@H](NC(=O)c3ccsc3)C(=O)N12` [Compound 410] gave a clearance of 32 mL/min/kg.

In the case of `CC(=O)N1C[C@H](NC(=O)c2ccc3ccccc3c2)C(=O)N(CC(=O)N[C@H](C=O)CC(=O)O)c2ccccc21` [Compound 605n], the clearance amounted to 28 mL/min/kg.

`O=C[C@H](CC(=O)O)NC(=O)[C@@H]1CCCN2C(=O)CCN(NC(=O)c3ccccc3)C(=O)N12` [Compound 265, [3S(4S)]3-(7-Benzamido-6,10-dioxo-1,2,3,4,7,8,9,10-octahydro-6H-pyridazino[1,2-a][1,2,4]triazepine-4-carboxamido)-4-oxobutanoic acid] came in with a clearance of 23 mL/min/kg.

With `N#C[C@H](CC(=O)O)NC(=O)[C@@H]1CCCN2C(=O)CC[C@H](NC(=O)c3ccccc3)C(=O)N12` [Compound 232e, [3S(1S,9S)]9-(Benzoylamino)-3-[6,10-dioxo-1,2,3,4,7,8,9,10-octahydro-6H-pyridazino-[1,2-a][1,2]diazepine-1-carboxamido]-3-cyanopropanoic acid], the clearance stood at 22 mL/min/kg.

Consider `O=C(O)C[C@H](NC(=O)[C@@H]1CCCN2C(=O)CC[C@H](NC(=O)CCc3ccccc3)C(=O)N12)C(=O)COC(=O)c1c(Cl)cccc1Cl` [Compound 136], for which the clearance was 93 mL/min/kg.

Regarding `O=C(O)C[C@H](NC(=O)[C@@H]1CCCN2C(=O)CC[C@H](NC(=O)c3ccccc3)C(=O)N12)C(=O)COC(=O)c1c(Cl)cccc1Cl` [Compound 217e, [3S(1S,9S)]3-(9-Benzoylamino-6,10-dioxo-1,2,3,4,7,8,9,10-octahydro-6H-pyridazino[1,2-a][1,2]-diazepine-1-carboxamido)-5-(2,6-dichlorobenzoyloxy)-4-oxopentanoic acid], the clearance was over 50 mL/min/kg.

The molecule `O=C[C@H](CC(=O)O)NC(=O)[C@@H]1CCCN2C(=O)CC[C@H](NC(=O)CCc3ccccc3)C(=O)N12` [Compound 47a, [3S(1S,9S)]3-(6,10-Dioxo-octahydro-9-(3-phenylpropionylamino)-6H-pyridazino[1,2-a][1,2]diazepine-1-carboxamido)-4-oxobutanoic acid] had a clearance of 79 mL/min/kg.

For the molecule `COC(=O)N[C@H]1CCC(=O)N2CCC[C@@H](C(=O)N[C@@H](CC(=O)O)C(=O)COC(=O)c3c(Cl)cccc3Cl)N2C1=O` [Compound 284, [3S(1S,9S)]5-(2,6-Dichlorobenzoyloxy)-3-[6,10-dioxo-9-(methoxycarbonyl)amino-1,2,3,4,7,8,9,10-octahydro-6H-pyridazino[1,2-a][1,2]diazepine-1-carboxamido]-4-oxopentanoic acid], the clearance was 77 mL/min/kg.

The same data set, now with this note: male CD-1 mice, i.v. tail vein, 25 mg/kg.
For the molecule `O=C(O)C[C@H](NC(=O)[C@@H]1CCCN2C(=O)CC[C@H](NC(=O)c3ccccc3)C(=O)N12)C(=O)COC(=O)c1c(Cl)cccc1Cl` [Compound 217e, [3S(1S,9S)]3-(9-Benzoylamino-6,10-dioxo-1,2,3,4,7,8,9,10-octahydro-6H-pyridazino[1,2-a][1,2]-diazepine-1-carboxamido)-5-(2,6-dichlorobenzoyloxy)-4-oxopentanoic acid], the “mean plasma concentration at 60-120 minutes” value is under 0.2 µg/mL.

The data set is the same for the next values; noted with them: mouse, i.v., 25 mg/kg.
Take `O=C(O)CC(NC(=O)[C@@H]1CCCN2C(=O)CC[C@H](NC(=O)c3ccccc3)C(=O)N12)C(=O)CF` (stereo partly drawn) [Compound 230e, [3RS,(1S,9S)]3-(9-Benzoylamino-6,10-dioxo-1,2,3,4,7,8,9,10-octahydro-6H-pyridazino[1,2-a][1,2]-diazepine-1-carboxamido)-5-fluoro-4-oxopentanoic acid]: the “Clearance Mouse, i.v.” value is 67 mL/min/kg.

Still in this data set, the particulars now being: mouse, i.v.; Table 18.
For “[3S(1S,9S)]3-[(6,10-Dioxo-9-(methanesulphonylamino)-1,2,3,4,7,8,9,10-octahydro-6H-pyridazino[1,2-a][1,2]diazepine-1-carboxamido]-5-(5-methyl-3-phenylisoxazoyloxy)-4-oxopentanoic acid [505 b]”, the “Clearance Mouse, i.v.” value was 161 mL/min/kg.

The data set is the same for the next values; noted with them: mouse, plasma, iv; male CD-1 mice, i.v. tail vein, 25 mg/kg; read-out: mean plasma level at 2 minutes.
For the molecule `O=C(O)C[C@H](NC(=O)[C@@H]1CCCN2C(=O)CC[C@H](NC(=O)c3ccccc3)C(=O)N12)C(=O)COC(=O)c1c(Cl)cccc1Cl` [Compound 217e, [3S(1S,9S)]3-(9-Benzoylamino-6,10-dioxo-1,2,3,4,7,8,9,10-octahydro-6H-pyridazino[1,2-a][1,2]-diazepine-1-carboxamido)-5-(2,6-dichlorobenzoyloxy)-4-oxopentanoic acid], the concentration at 2 min is about 55 µg/mL.

Assay in another data set: not given
Settings: not given
Take `CC(=O)Nc1cccc(C(=O)N[C@H]2CCC(=O)N3CCC[C@@H](C(=O)N[C@H](C=O)CC(=O)O)N3C2=O)c1` [Compound 450, [3S(1S,9S)]3-{9-[(3-Acetamido)benzamido]-6,10-dioxo-1,2,3,4,7,8,9,10-octahydro-6H-pyridazino[1,2-a][1,2]diazepine-1-carboxamido}-4-oxobutanoic acid]: the melting point (usually the temperature, or range, at which the solid turns liquid) lay within 175 to 179 °C.

In turn, `O=C1C[C@H](NC(=O)[C@@H]2CCCN3C(=O)CC[C@H](NC(=O)c4ccccc4)C(=O)N23)[C@H](OCc2ccccc2)O1` [Compound 2100o, [1S,9S(2R,3S)]9-Benzoylamino-N-(2-benzyloxy-5-oxotetrahydrofuran-3-yl)-6,10-dioxo-1,2,3,4,7,8,9,10-octahydro-6H-pyridazino[1,2-a][1,2]diazepine-1-carboxamide] displayed a melting point of 115 to 117 °C.

For `O=C[C@H](CC(=O)O)NC(=O)[C@@H]1CCCN2C(=O)CCN(NC(=O)c3ccc4c(c3)OCO4)C(=O)N12` [Compound 1015, [3S(4S)]3-[6,10-Dioxo-7-(3,4-methylenedioxybenzoylamino)-1,2,3,4,7,8,9,10-octahydro-6H-pyridazino[1,2-a][1,2,4]triazepine-4-carboxamido]-4-oxobutanoic acid], the melting point lay within 170 to 175 °C.

Molecule `CC(C)CC(=O)Nc1ccc(C(=O)N[C@H]2CCC(=O)N3CCC[C@@H](C(=O)N[C@H](C=O)CC(=O)O)N3C2=O)cc1` [Compound 487, [3S(1S,9S)]3-{6,10-Dioxo-9-[4-(3-methylbutan-1-oylamino)benzamido]-1,2,3,4,7,8,9,10-octahydro-6H-pyridazino[1,2-a][1,2]diazepine-1-carboxamido}-4-oxobutanoic acid] yielded a melting point of 176 to 180 °C.

`O=C[C@H](CC(=O)O)NC(=O)[C@@H]1CCCN2C(=O)CCN(NC(=O)c3cc4ccccc4[nH]3)C(=O)N12` [Compound 1075, [3S(4S)]3-[6,10-Dioxo-7-(indole-2-carboxamido)-1,2,3,4,7,8,9,10-octahydro-6H-pyridazino[1,2-a][1,2,4]triazepine-4-carboxamido]-4-oxobutanoic acid] yielded a melting point of 210 to 215 °C.

`O=C[C@H](CC(=O)O)NC(=O)[C@@H]1CCCN2C(=O)CC[C@H](NC(=O)c3ccc(NC(=O)Cc4ccccc4)cc3)C(=O)N12` [Compound 486, [3S(1S,9S)]3-{6,10-Dioxo-1,2,3,4,7,8,9,10-octahydro-9-[4-(phenylacetamido)benzamido]-6H-pyridazino[1,2-a][1,2]diazepine-1-carboxamido}-4-oxobutanoic acid] yielded a melting point of 165 to 169 °C.

The molecule `O=C1C[C@H](NC(=O)[C@@H]2CCCN3C(=O)CC[C@H](NC(=O)c4ccccc4)C(=O)N23)C(OCc2ccccc2)O1` (single isomer, unassigned) [Compound 2100n] displayed a melting point of 112 to 115 °C.

With `CC(=O)Nc1ccc(C(=O)NN2CCC(=O)N3CCC[C@@H](C(=O)N[C@H](C=O)CC(=O)O)N3C2=O)cc1` [Compound 1018, [3S(4S)]3-{7-[(4-Acetamido)benzamido]-6,10-Dioxo-1,2,3,4,7,8,9,10-octahydro-6H-pyridazino[1,2-a][1,2,4]-triazepine-4-carboxamido}-4-oxobutanoic acid], the melting point was 235 to 240 °C.
